Assay results as given in patent publication US7026518B2 (Laila Impex, priority 2002, dated 2006).

How the values were obtained:
[1] = Superoxide scavenging activity (NBT), McCord and Fridovich method; settings: light induced superoxide generation by riboflavin, reduction of NBT
Procedure: Antioxidant (superoxide scavenging) activity of these compounds are determined by conventional methods like McCord and Fridovich method, which is based on light induced superoxide generation by riboflavin and corresponding reduction of NBT. The assay mixture contains phosphate buffer, EDTA, NBT and riboflavin. Different concentrations of these compounds were assessed and their optical densities measured before and after illumination. The percentage value of inhibition of superoxide production by the compounds of this invention was evaluated and compared with the absorbance value of control and experimental data.

| SMILES | Superoxide scavenging activity (NBT) IC50 [1] | melting point |
| --- | --- | --- |
| O=C(Oc1cc(/C=C/c2ccc(O)cc2)cc(OC(=O)c2cc(O)c(O)c(O)c2)c1)c1cc(O)c(O)c(O)c1 [Compound 5, 3-[(1E)-2-(4-hydroxyphenyl)vinyl]-5-(3,4,5trihydroxyphenylcarbonyloxy)-phenyl 3,4,5-trihydroxybenzoate] | 17.5 µg/mL |  |
| Cl.NCC(=O)Oc1cc(O)cc(/C=C/c2ccc(O)cc2)c1 [Compound 9, 5-[(1E)-2-(4-hydroxyphenyl)vinyl]-3-hydroxyphenyl 2-aminoacetate hydrochloride] | 29.3 µg/mL |  |
| O=C(/C=C/c1cc(O)c(O)c(O)c1)Oc1cc(O)cc(/C=C/c2ccc(O)cc2)c1 [Compound 7, 5-[(1E)-2-(4-hydroxyphenyl)vinyl]-3-hydroxyphenyl(2E)3(3,4,5-trihydroxyphenyl) prop-2-enoate] | 10.0 µg/mL |  |
| Oc1ccc(/C=C/c2cc(O)c(O)c(O)c2)cc1O [Compound 1, 5-[(1E)-2-(3,4-dihydroxyphenyl)vinyl]-benzene1,2,3-triol] | 3.0 µg/mL | 150 to 152 °C |
| Oc1cc(/C=C/c2cc(O)c(O)c(Br)c2)cc(O)c1O [Compound 2, 5-[(1E)-2-(5-Bromo-3,4-dihydroxyphenyl)vinyl]-benzene1,2,3-triol] | 8.1 µg/mL | 180 to 182 °C |
| O=C(Oc1cc(O)cc(/C=C/c2ccc(O)cc2)c1)c1cc(O)c(O)c(O)c1 [Compound 4, 5-[(1E)2-(4-hydroxyphenyl)vinyl]-3-hydroxyphenyl 3,4,5-trihydroxybenzoate] | 16.0 µg/mL |  |
| CN(C)CCOc1cc(O)cc(/C=C/c2ccc(O)cc2)c1 [Compound 8, 3-[(1E)-2-(4-hydroxyphenyl)vinyl]-5-[2-(dimethylamino)ethoxy] phenol] | 34.1 µg/mL | 92 to 94 °C |
| Oc1cc(/C=C/c2cc(O)c(O)c(O)c2)cc(O)c1O [Compound 3, 5-[(1E)-2-(3,4,5-trihydroxyphenyl)vinyl]-benzene1,2,3-triol] | 0.9 µg/mL |  |
| O=C(/C=C/c1ccc(O)c(O)c1)Oc1cc(O)cc(/C=C/c2ccc(O)cc2)c1 [Compound 6, 5-[(1E)-2-(4-hydroxyphenyl)vinyl]-3-hydroxyphenyl(2E)-3(3,4-dihydroxyphenyl) prop-2-enoate] | 9.2 µg/mL |  |
